Test results taken from patent publication US6979686B1, “Substituted pyrazoles as p38 kinase inhibitors” (Pharmacia Corporation, priority 2001, dated 2005).
Like-named read-outs stand apart in the source and are kept apart here.

How the values were obtained:
[1] = test system: TNF alpha, BALB/c mice injected with LPS; test: Mouse model of LPS-induced TNF alpha production; format: in vivo; conditions: Table 6; mouse LPS, head '8 h', dose 30, oral gavage
Description: Mouse Model of LPS-induced TNF Alpha Production:
TNF alpha was induced in 10-12 week old BALB/c female mice by tail vein injection with 100 ng lipopolysaccharide (from S. Typhosa) in 0.2 ml saline. One hour later mice were bled from the retroorbital sinus and TNF concentrations in serum from clotted blood were quantified by ELISA.
Efficacy was determined at each time point as percent inhibition of serum TNF levels relative to LPS injected mice that received vehicle only.
In vivo assessment of the ability of the compounds to inhibit LPS-stimulated TNP release in the mouse is shown in the column identified as: • “Mouse LPS Model, % TNF inhib @ dose @ predose time” wherein in the dose is milligram per kilogram (mpk) administered by oral gavage and the predose time indicates the number of hours before LPS challenge when the compound is administered.

[2] = test system: TNF-α, U937 human histiocytic lymphoma cell line; test: LPS stimulation of TNF production by U937 cells; format: cell-based; conditions: for inhibition at 1 µM / IC50: Homo sapiens; for inhibition at 1 µM: U-937, @ 1.0 uM, read-out: U937 Cell % inhib @ conc.; for IC50: read-out: U937 Cell IC50
Summary of the method: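 U937 cells differentiated 24 h with 20 ng/ml PMA, rested 24-48 h, used at 2 million cells/ml. Compounds in 0.1% DMSO final; LPS (E. coli, 100 ng/ml final) stimulation for 4 h at 37° C. Released TNF-α measured by ELISA; IC50 (μM).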

human p38 kinase alpha = biological target: T1, human p38 kinase alpha (Homo sapiens, UniProt Q16539); test: p38 kinase in vitro assay, phosphorylation of biotinylated PHAS-I with 32P-ATP; format: biochemical; conditions: for IC50: read-out: P38 alpha kinase IC50
T1 construct: GST (N, cleaved yes); made in house; host or cells: E. coli DH10B
T1 sequence (Q16539 whole entry): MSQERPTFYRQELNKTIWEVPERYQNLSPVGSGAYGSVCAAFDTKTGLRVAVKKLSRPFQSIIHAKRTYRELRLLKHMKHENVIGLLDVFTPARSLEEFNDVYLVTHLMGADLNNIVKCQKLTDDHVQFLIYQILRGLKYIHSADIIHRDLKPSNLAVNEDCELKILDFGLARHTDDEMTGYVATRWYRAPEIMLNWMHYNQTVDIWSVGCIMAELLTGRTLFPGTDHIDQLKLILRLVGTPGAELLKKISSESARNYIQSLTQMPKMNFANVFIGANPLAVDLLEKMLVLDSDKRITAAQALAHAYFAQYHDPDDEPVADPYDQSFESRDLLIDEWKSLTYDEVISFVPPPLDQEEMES

[3] = TNF production, U937 cells stimulated with LPS
[4] = in vitro P38-alpha kinase inhibition
[5] = U-937, TNF production, human U937 cells stimulated with LPS
[6] = @ 1.0 uM, TNF production, U937 cells stimulated with LPS
[7] = TNF production, LPS-stimulated U937 cells
[8] = @ 10.0 uM, TNF production, LPS-stimulated U937 cells

For `OCCn1ncc(-c2ccnc(NCc3ccc(F)cc3)c2)c1-c1ccc(F)cc1` [Example A-290, 5-(4-fluorophenyl)-4-[2-[[(4-fluorophenyl)methyl]amino]-4-pyridinyl]-1H-pyrazole-1-ethanol], the “mLPS 8 h percent inhibition” value [1] was 4%.
With `Cc1ccccc1C(=O)NCCc1[nH]nc(-c2ccc(F)cc2)c1-c1ccncc1` [Example B-1120] the inhibition at 1 µM [2, 3] was 9% and the IC50 (human p38 kinase alpha; [4]) was 0.47 µM.
For `CNC(=O)NC(Cc1ccccc1)c1[nH]nc(-c2ccc(F)cc2)c1-c1ccncc1` (centres unmarked) [Example B-0775], the IC50 ([2]; U-937, TNF production in human U937 cells stimulated with LPS) was > 1 µM and the IC50 (human p38 kinase alpha; [4]) was 0.6 µM.
`CC(C)=CC(=O)NCc1[nH]nc(-c2ccc(F)cc2)c1-c1ccncc1` [Example B-0027] was tested, and the IC50 [2, 5] was 11 µM and the inhibition at 1 µM (human p38 kinase alpha; @ 1.0 uM, read-out: P38 alpha kinase % inhib @ conc.) was 94%.
Compound `Cc1c(Cl)cccc1S(=O)(=O)NCCc1[nH]nc(-c2ccc(F)cc2)c1-c1ccncc1` [Example B-1075] has an inhibition at 1 µM [2, 3] of 29% and an IC50 (human p38 kinase alpha; [4]) of 0.03 µM.
`O=C(NC(Cc1ccccc1)c1[nH]nc(-c2ccc(F)cc2)c1-c1ccncc1)c1ccccc1C(F)(F)F` (centres unmarked) [Example B-0812] was tested, and the IC50 [2, 5] was > 1 µM and the IC50 (human p38 kinase alpha; [4]) was 2.12 µM.
Compound `CCS(=O)(=O)NC(CCC(=O)NC)c1[nH]nc(-c2ccc(F)cc2)c1-c1ccncc1` (centres unmarked) [Example B-0877] has an inhibition at 1 µM [2, 3] of 13% and an IC50 (human p38 kinase alpha; [4]) of 1.17 µM.
For `O=S(=O)(c1ccccc1F)N1CCC(c2[nH]nc(-c3ccc(F)cc3)c2-c2ccncc2)CC1` [Example B-1377], the IC50 [2, 5] was 5 µM and the IC50 (human p38 kinase alpha; in vitro P38-alpha kinase) was 0.12 µM.
With `C=Cc1ccc(S(=O)(=O)NCc2[nH]nc(-c3ccc(F)cc3)c2-c2ccncc2)cc1` [Example B-0140] the “U937 Cell % inhib @ conc.” value [2, 6] was 9.0% @ and the “P38 alpha kinase % inhib @ conc.” value (human p38 kinase alpha; @ 10.0 uM) was 67% @.
For `Cc1c(-c2ccncc2)c(-c2ccc(F)cc2)nn1CC(=O)N(C)CC(=O)N(C)C` [Example B-2412], the “U937 Cell IC50, uM or % inhib @ conc. (uM): % inhib” value ([2]; @ 10.0 uM, TNF production, U937 cells stimulated with LPS) was 31.0% @ and the “P38 alpha kinase IC50, uM or % inhib @ conc. (uM): % inhib” value (human p38 kinase alpha; @ 10.0 uM) was 40.0% @.
For `O=C(NCCCc1[nH]nc(-c2ccc(F)cc2)c1-c1ccncc1)NCCCN1CCCC1` [Example B-1318], the inhibition at 1 µM [2, 7] was 1% and the IC50 (human p38 kinase alpha; in vitro P38-alpha kinase) was < 0.1 µM.
With `COc1ccccc1C(=O)NCCc1[nH]nc(-c2ccc(F)cc2)c1-c1ccncc1` [Example B-0995] the “U937 Cell % inhib @ conc. (uM)” value [2, 6] was 14.0% @ and the “P38 alpha kinase % inhib @ conc. (uM)” value (human p38 kinase alpha; @ 1.0 uM) was 53.0% @.
`O=S(=O)(c1ccc(C(F)(F)F)cc1)N1CCC(c2[nH]nc(-c3ccc(F)cc3)c2-c2ccncc2)CC1` [Example B-1474] gave an inhibition at 1 µM [2, 7] of 31% and an IC50 (human p38 kinase alpha; in vitro P38-alpha kinase) of 1.23 µM.
`O=S(=O)(c1ccc(F)c(F)c1)N1CCC(c2[nH]nc(-c3ccc(F)cc3)c2-c2ccncc2)CC1` [Example B-1456] was tested, and the IC50 [2, 5] was > 1 µM and the IC50 (human p38 kinase alpha; in vitro P38-alpha kinase) was 1.29 µM.
`O=S(=O)(c1ccccc1)N1CCC(c2[nH]nc(-c3ccc(F)cc3)c2-c2ccncc2)CC1` [Example B-1433] was tested, and the inhibition at 1 µM [2, 7] was 21% and the IC50 (human p38 kinase alpha; in vitro P38-alpha kinase) was 0.26 µM.
In the case of `C=CCN(C(=O)Cn1nc(-c2ccc(F)cc2)c(-c2ccncc2)c1C)C1CCCCC1` [Example B-2373], the “U937 Cell % inhib @ conc.” value [2, 8] is reported as 6% @ and the “P38 alpha kinase % inhib @ conc.” value (human p38 kinase alpha; @ 100.0 uM) is reported as 50.0% @.
In the case of `CCOC(=O)C(Cc1ccccc1)NC(=O)Cn1nc(-c2ccc(F)cc2)c(-c2ccncc2)c1C` (centres unmarked) [Example B-2351], the “U937 Cell % inhib @ conc.” value [2, 8] is reported as 1.0% @ and the “P38 alpha kinase % inhib @ conc.” value (human p38 kinase alpha; @ 10.0 uM) is reported as 77.0% @.
For `COc1cccc(CC(=O)N2CCC(c3[nH]nc(-c4ccc(F)cc4)c3-c3ccncc3)CC2)c1` [Example B-1370], the IC50 [2, 5] was 0.77 µM and the IC50 (human p38 kinase alpha; in vitro P38-alpha kinase) was < 0.1 µM.
In the case of `CCCCCc1cccc(C(C)NC(=O)Cn2nc(-c3ccc(F)cc3)c(-c3ccncc3)c2C)c1` (centres unmarked) [Example B-2354], the “U937 Cell % inhib @ conc.” value [2, 8] is reported as 25.0% @ and the “P38 alpha kinase % inhib @ conc.” value (human p38 kinase alpha; @ 10.0 uM) is reported as 65.0% @.
For `CNC(=O)CCC(NC(=O)c1cccc(Br)c1)c1[nH]nc(-c2ccc(F)cc2)c1-c1ccncc1` (centres unmarked) [Example B-0867], the IC50 [2, 5] was > 1 µM and the IC50 (human p38 kinase alpha; [4]) was 0.62 µM.
Work on `N#Cc1cccc(C(=O)NCCc2[nH]nc(-c3ccc(F)cc3)c2-c2ccncc2)c1` [Example B-1127] yielded an inhibition at 1 µM [2, 3] of 7% and an IC50 (human p38 kinase alpha; [4]) of 0.71 µM.
